# Reference: US20230124361A1, “SMALL MOLECULE STING ANTAGONISTS” (CURADEV PHARMA PVT. LTD., priority 2020, published 2023)
# Molecular target: T1, STING (Homo sapiens, UniProt Q86WV6, G230A/H232R/R293Q/R71H)
# T1 construct: host or cells: THP1-Dual cells (human THP-1 monocyte line with Lucia/SEAP reporters)
# Assay: Reporter gene expression assay in THP1-Dual cells (IRF pathway Lucia luciferase, 2',3'-cGAMP stimulation)
# Type: cell-based
# Details: 10 min preincubation, 5 μM 2',3'-cGAMP, 20 hr, IRF reporter QUANTI-Luc, read-out: THP-1 (HAQ) Activity
# Experimental: Reporter Gene Expression Assay in THP-1 Cells
# THP1-Dual™ cells (Invivogen) were derived from the human THP-1 monocyte cell line by stable integration of two inducible reporter constructs. As a result, THP1-Dual™ cells allow the simultaneous study of the IRF pathway, by assessing the activity of a secreted luciferase (Lucia) and the NF-κB pathway, by monitoring the activity of secreted SEAP. 5×10^4 THP1-Dual™ cells were seeded in 384-well plates in growth medium and preincubated with novel compounds for 10 minutes followed by stimulation with 5 μM 2′,3′-cGAMP. After 20 hr of stimulation the supernatant was removed and the IRF pathway reporter protein was readily measured in the cell culture supernatant using QUANTI-Luc™ (Invivogen), a luciferase detection reagent on a Spectramax i3X luminometer.
# In the tables below, IC50 value ranges for exemplary compounds are given. The IC50 ranges are indicated as “A” for values less than or equal to 1 μM, “B” for values greater than 1 μM and less than or equal to 10 μM, and “C” for values greater than 10 μM.
# T1 sequence (Q86WV6 whole entry R71H/G230A/H232R/R293Q): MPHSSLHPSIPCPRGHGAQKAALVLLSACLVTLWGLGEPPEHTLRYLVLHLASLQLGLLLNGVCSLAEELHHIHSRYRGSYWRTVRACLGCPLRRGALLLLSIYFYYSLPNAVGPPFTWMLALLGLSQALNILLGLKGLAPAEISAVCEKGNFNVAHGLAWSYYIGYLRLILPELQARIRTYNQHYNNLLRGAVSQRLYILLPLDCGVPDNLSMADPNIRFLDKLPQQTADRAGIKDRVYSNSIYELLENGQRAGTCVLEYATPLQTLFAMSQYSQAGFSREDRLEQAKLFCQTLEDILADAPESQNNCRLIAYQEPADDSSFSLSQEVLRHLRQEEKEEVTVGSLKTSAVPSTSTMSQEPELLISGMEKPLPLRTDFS
row,Compound,IC50 [nM]
1,"Nc1cccc(CN2C(=O)CSc3ccc(NC(=O)Nc4ccc5cc[nH]c5c4)cc32)c1 [Example 53, l-(4-(3-aminobenzyl)-3-oxo-3,4-dihydro-2H-benzo[b][1, 4]thiazin-6-yl)-3-(1H-indol-6-yl)urea]",> 10000
2,"O=C(Nc1ccc2c(c1)N(C(=O)c1ccccc1)CCS2)Nc1ccc2cc[nH]c2c1 [Example 57, 1-(4-benzoyl-3,4-dihydro-2H-benzo[b][1, 4]thiazin-6-yl)-3-(1H-indol-6-yl)urea]",> 10000
3,"O=C(Nc1ccc2c(c1)OCCN2Cc1ccccc1)Nc1ccc2cc[nH]c2c1 [Example 62, 1-(4-Benzyl-3,4-dihydro-2H-benzo[b][1,4]oxazin-7-yl)-3-(1H-indol-6-yl)urea]",> 10000
4,"O=C(Nc1ccc2c(c1)SCCN2Cc1ccccc1)Nc1ccc2cc[nH]c2c1 [Example 63, 1-(4-benzyl-3,4-dihydro-2H-benzo[b][1, 4]thiazin-7-yl)-3-(1H-indol-6-yl)urea]",> 10000
5,"O=C(Nc1ccc2c(c1)OCC(=O)N2c1ccccc1)Nc1ccc2cc[nH]c2c1 [Example 75, 1-(1H-Indol-6-yl)-3-(3-oxo-4-phenyl-3,4-dihydro-2H-benzo[b][1,4]oxazin-7-yl)urea]",1000 to 10000
6,"NC(=O)CC1Sc2ccc(NC(=O)Nc3ccc4cc[nH]c4c3)cc2N(Cc2ccccc2)C1=O (centres unmarked) [Example 76, 2-(6-(3-(1H-Indol-6-yl)ureido)-4-benzyl-3-oxo-3,4-dihydro-2H-benzo[b][1,4]thiazin-2-yl)acetamide]",1000 to 10000
7,N#CCC1Sc2ccc(NC(=O)Nc3ccc4cc[nH]c4c3)cc2N(Cc2ccccc2)C1=O (centres unmarked) [Example 77],1000 to 10000
8,"O=C(Nc1ccc2c(c1)N(Cc1ccccc1)C(CC(O)CO)CO2)Nc1ccc2cc[nH]c2c1 (centres unmarked) [Example 79, 1-(4-Benzyl-3-(2,3-dihydroxypropyl)-3,4-dihydro-2H-benzo[b][1,4]oxazin-6-yl)-3-(1H-indol-6-yl)urea]",1000 to 10000
9,"O=C(Nc1ccc2c(c1)N(Cc1ccccc1)C(CCO)CO2)Nc1ccc2cc[nH]c2c1 (centres unmarked) [Example 80, 1-(4-Benzyl-3-(2-hydroxyethyl)-3-,4-dihydro-2H-benzo[b][1,4]oxazin-6-yl)-3-(1H-indol-6-yl)urea]",1000 to 10000
10,"N#CC1COc2ccc(NC(=O)Nc3ccc4cc[nH]c4c3)cc2N1Cc1ccccc1 (centres unmarked) [Example 81, 1-(4-Benzyl-3-cyano-3,4-dihydro-2H-benzo[b][1,4]oxazin-6-yl)-3-(1H-indol-6-yl)urea]",1000 to 10000
11,NCC1COc2ccc(NC(=O)Nc3ccc4cc[nH]c4c3)cc2N1Cc1ccccc1 (centres unmarked) [Example 82],> 10000
12,NC(=O)C1COc2ccc(NC(=O)Nc3ccc4cc[nH]c4c3)cc2N1Cc1ccccc1 (centres unmarked) [Example 83],1000 to 10000
13,"NC(=O)C(c1ccccc1)N1CCOc2ccc(NC(=O)Nc3ccc4cc[nH]c4c3)cc21 (centres unmarked) [Example 84, 2-(6-(3-(1H-Indol-6-yl)ureido)-2,3-dihydro-4H-benzo[b][1,4]oxazin-4-yl)-2-phenylacetamide]",1000 to 10000
14,"O=C(Nc1ccc2c(c1)N(C(CO)c1ccccc1)CCO2)Nc1ccc2cc[nH]c2c1 (centres unmarked) [Example 85, 1-(4-(2-Hydroxy-1-phenylethyl)-3,4-dihydro-2H-benzo[b][1,4]oxazin-6-yl)-3-(1H-indol-6-yl)urea]",1000 to 10000
15,COC(=O)C(c1ccccc1)N1CCOc2ccc(NC(=O)Nc3ccc4cc[nH]c4c3)cc21 (centres unmarked) [Example 86],1000 to 10000
16,"CN1C(=O)CSc2ccc(NC(=O)Nc3ccc4cc[nH]c4c3)cc21 [Example 87, 1-(1H-indol-6-yl)-3-(4-methyl-3-oxo-3,4-dihydro-2H-benzo[b][1, 4]thiazin-6-yl)urea]",1000 to 10000
17,"O=C1COc2cc(NC(=O)Nc3ccc4cc[nH]c4c3)ccc2N1 [Example 88, 1-(1H-indol-6-yl)-3-(3-oxo-3,4-dihydro-2H-benzo[b][1, 4]oxazin-7-yl)urea]",> 10000

# Results, then the molecule that gave them:
row,IC50 [nM],Compound
1,1000 to 10000,"O=C(Nc1ccc2c(c1)N(Cc1ccccc1)C(=O)CS2)c1ccc2cc[nH]c2c1 [Example 55, N-(4-benzyl-3-oxo-3,4-dihydro-2H-benzo[b][1,4]thiazin-6-yl)-1H-indole-6-carboxamide]"
2,1000 to 10000,"O=C(Nc1ccc2c(c1)N(Cc1ccccc1)CCO2)Nc1ccc2cc[nH]c2c1 [Example 56, 1-(4-benzyl-3,4-dihydro-2H-benzo[b][1, 4]oxazin-6-yl)-3-(1H-indol-6-yl)urea]"
3,1000 to 10000,"CN(C(=O)Nc1ccc2c(c1)N(Cc1ccccc1)C(=O)CS2)c1ccc2cc[nH]c2c1 [Example 59, 3-(4-benzyl-3-oxo-3,4-dihydro-2H-benzo[b][1, 4]thiazin-6-yl)-l-(1H-indol-6-yl)-1-methylurea]"
4,1000 to 10000,Cc1cc(CN2C(=O)CSc3ccc(NC(=O)Nc4ccc5cc[nH]c5c4)cc32)ccn1 [Example 60]
5,1000 to 10000,"O=C(Nc1ccc2c(c1)N(Cc1ccccc1)CCS2)Nc1c[nH]c2ccccc12 [Example 64, 1-(4-benzyl-3,4-dihydro-2H-benzo[b][1, 4]thiazin-6-yl)-3-(1H-indol-3-yl)urea]"
6,≤ 1000,"O=C(Nc1ccc2c(c1)N(CC1CC1)CCS2)Nc1ccc2cc[nH]c2c1 [Example 65, 1-(4-(cyclopropyl-methyl)-3,4-dihydro-2H-benzo[b][1, 4]thiazin-6-yl)-3-(1H-indol-6-yl)urea]"
7,≤ 1000,"O=C(Nc1ccc2c(c1)N(Cc1ccncc1)CCS2)Nc1ccc2cc[nH]c2c1 [Example 66, 1-(1H-indol-6-yl)-3-(4-(pyridin-4-ylmethyl)-3,4-dihydro-2H-benzo[b][1, 4]thiazin-6-yl)urea]"
8,≤ 1000,"O=C(Nc1ccc2c(c1)N(CC1CCCC1)CCS2)Nc1ccc2cc[nH]c2c1 [Example 67, 1-(4-(cyclopentylmethyl)-3,4-dihydro-2H-benzo[b][1, 4]thiazin-6-yl)-3-(1H-indol-6-yl)urea]"
9,1000 to 10000,"O=C(Nc1ccc2c(c1)N(CCN1CCCC1)CCS2)Nc1ccc2cc[nH]c2c1 [Example 68, 1-(1H-indol-6-yl)-3-(4-(2-(pyrrolidin-1-yl)ethyl)-3,4-dihydro-2H-benzo[b][1, 4]thiazin-6-yl)urea]"
10,≤ 1000,"O=C(Nc1ccc2c(c1)OCC(=O)N2Cc1ccccc1)Nc1ccc2cc[nH]c2c1 [Example 69, 1-(4-Benzyl-3-oxo-3,4-dihydro-2H-benzo[b][1,4]oxazin-7-yl)-3-(1H-indol-6-yl)urea]"
11,≤ 1000,"O=C(Nc1ccc2c(c1)N(c1ccccc1)CCS2)Nc1ccc2cc[nH]c2c1 [Example 72, 3-(1H-Indol-6-yl)-3-(4-phenyl-3,4-dihydro-2H-benzo[b][1,4]thiazin-6-yl)urea]"
12,1000 to 10000,"CN1CCN(Cc2ccccc2)c2cc(NC(=O)Nc3ccc4cc[nH]c4c3)ccc21 [Example 73, 1-(4-Benzyl-1-methyl-1,2,3,4-tetrahydroquinoxalin-6-yl)-3-(1H-indol-6-yl)urea]"
13,1000 to 10000,"O=C(Nc1ccc2c(c1)N(Cc1ccccc1)CC2)Nc1ccc2cc[nH]c2c1 [Example 74, 1-(1-Benzylindolin-6-yl)-3-(1H-indol-6-yl)urea]"
14,≤ 1000,"C=CCC1COc2ccc(NC(=O)Nc3ccc4cc[nH]c4c3)cc2N1Cc1ccccc1 (centres unmarked) [Example 78, 1-(3-Allyl-4-benzyl-3,4-dihydro-2H-benzo[b][1,4]oxazin-6-yl)-3-(1H-indol-6-yl)urea]"
15,≤ 1000,"O=C(Nc1ccc2c(c1)SCC(=O)N2Cc1c(F)cccc1Cl)Nc1ccc2cc[nH]c2c1 [Example 89, 1-(4-(2-chloro-6-fluorobenzyl)-3-oxo-3,4-dihydro-2H-benzo[b][1, 4]thiazin-7-yl)-3-(1H-indol-6-yl)urea]"
